Entries after “also recorded” stand apart in the source; their conditions may differ. Like-named read-outs stand apart in the source and are kept apart here.
Assays:
Design in all cases: species or system moorland maritime pine
[1] = Kraft cooking (caustic soda-sulfuric liquor) with adjuvant
Description: Shavings from moorland maritime pine are subjected to cooking in an autoclave with a caustic soda-sulfuric liquor under the following conditions:
Proportion of active alkali: 22% by weight with respect to the dry vegetable material,
Sulfidity: 25% with respect to the active alkali,
Ratio liquor/vegetable material: 4
Temperature of heating: 170° C.
Time taken to arrive at the heating temperature: 90 min.,
Time of heating: 120 min.
Amount of adjuvant: 0-0.1%-0.5%-1% by weight with respect to the dry vegatable material.
After cooking, the same operations as those described in Example 9 are carried out on the pulps and the cooking liquors. […]

[2] = Mechanical characteristics of raw pulps from caustic soda cooking, refined at 40° SR; conditions: for Index of rupture / Index of tearing / Length of rupture / Resistance to bending: 0.5% adjuvant, 40° SR
Description: (§1) The raw pulps for reference and those obtained with 0.5% of adjuvant in the cooking are refined in a Jokro mill.
(§2) Sheets for physical tests are produced on a Rapid Kothen mold. Their weight per m^2 is about 70 g.
(§3) The following mechanical characteristics are determined:
(§4) Length of break: AFNOR NFQ 03004 standard
(§5) Index of splitting or cracking: AFNOR NFQ 03014 standard
(§6) Tearing index: AFNOR NFQ 03011 standard
(§7) Resistance to bending or folding: AFNOR NFQ 03001 standard
The mechanical characteristics of the raw or unwashed pulps obtained after heating with caustic soda in the presence of 0.5% of adjuvant are compared with those of a conventional Kraft pulp (Table IV).
Mechanical characteristics of raw pulps refined at
40° SR caustic soda cooking with 0.5% of adjuvant

[3] = Mechanical characteristics of crude pulps from Kraft cooking, refined at 40° SR; conditions: for Index of rupture / Index of tearing / Length of rupture / Resistance to bending: 0.5% adjuvant, 40° SR
Description: as §1, §2, §3, §4, §5, §6, §7
After cooking, the same operations as those described in Example 9 are carried out on the pulps and the cooking liquors.
A comparative test with 0.5% of anthraquinone is effected under the same operational conditions as in Example 11. The mechanical characteristics of the pulps obtained are compared with those of a Kraft pulp for reference (Table VII).
Mechanical characteristics of the crude pulps refined at
40° SR Kraft cooking with 0.5% of adjuvant

[4] = Caustic soda cooking (delignification) with adjuvant; conditions: for Kappa index: NFT 12018
Description: Shavings of moorland maritime pine are subjected to heating in an autoclave with a caustic soda liquor. The cooking conditions are as follows:
Amount of caustic soda: 22% by weight with respect to the dry vegetable material.
Ratio of liquor/vegetable material: 4
Temperature of cooking: 170° C.
Time in which the cooking temperature
Time of cooking: 90 minutes
Amount of adjuvant: 0-0.1%-0.5%-1% by weight with respect to the dry vegetable material
After cooking, the pulps obtained are washed, disintegrated on a 3 mm grid (Vewerk grader or sorter).
The crude yield and the yield of sorted pulp are determined on the pulps, and the Kappa index according to French standard NFT 12018 are determined on the raw pulps.
The pH and the consumption of caustic soda are determined on the liquors after cooking.
A comparative test with 0.5% of anthraquinone was carried out under the same operational conditions as in Example 9.

For O=C1c2ccccc2C(=O)C2CCCCC12 (stereo not drawn) [6 HAD, 1,2,3,4,4a,9a-hexahydro-9,10-anthracene-dione], the “effect on delignification, Kappa index and yield” value [1] was “enables the Kappa index of the pulps to be appreciably lowered without alteration of the mechanical properties; also recorded: With identical Kappa indexes, yields greater than those of the Kraft process referred to can be obtained; also recorded: increases the kinetics and the selectivity of the delignification; also recorded: decrease of the Kappa index of the pulps without reduction of the yield of the cooking”, the “% Effective alkali consumed/wood” value ([1]; 0.1% adjuvant) was 17.5% and the Classified yield ([1]; 0.1% adjuvant) was 44.3%. For the same molecule, the Crude yield ([1]; 0.1% adjuvant) was 44.6%, the Kappa index ([1]; 0.1% adjuvant) was 27.4 and the “% Effective alkali consumed/wood” value ([1]; 0.5% adjuvant) was 17.9%. It also gave a Classified yield ([1]; 0.5% adjuvant) of 44.5%, a Crude yield ([1]; 0.5% adjuvant) of 44.8% and a Kappa index ([1]; 0.5% adjuvant) of 24.2. The “% Effective alkali consumed/wood” value ([1]; 1% adjuvant) was 18.2%, the Classified yield ([1]; 1% adjuvant) was 44.3% and the Crude yield ([1]; 1% adjuvant) was 44.4%. It also gave a Kappa index ([1]; 1% adjuvant) of 22.0, an Index of rupture [2] of 4.82 and an Index of tearing [2] of 922. For the same molecule, the Length of rupture [2] was 7,030 m, the Resistance to bending [2] was 1,846 and the “quality / mechanical properties of pulps” value ([2]; compared with conventional Kraft pulp) was “very near to the quality of the conventional Kraft pulp; also recorded: mechanical properties similar to those of Kraft pulps with a similar yield and Kappa indexes”. For the same molecule, the “mechanical characteristics / degradation of pulps” value [3] was “more favorable than that of anthraquinone”, the Index of rupture ([3]; Kraft cooking) was 5.55 and the Index of tearing ([3]; Kraft cooking) was 847. For the same molecule, the Length of rupture ([3]; Kraft cooking) was 7,000 m, the Resistance to bending ([3]; Kraft cooking) was 1,917 and the “effect on delignification” value [4] was “has the same effect as the anthraquinone”. For the same molecule, the “% Caustic soda consumed/wood” value ([4]; 0.1% adjuvant) was 16.9%, the Classified yield ([4]; 0.1% adjuvant) was 45.7% and the Crude yield ([4]; 0.1% adjuvant) was 46.2%. The Kappa index ([4]; 0.1% adjuvant) was 51.7, the “% Caustic soda consumed/wood” value ([4]; 0.5% adjuvant) was 17.9% and the Classified yield ([4]; 0.5% adjuvant) was 45.5%. For the same molecule, the Crude yield ([4]; 0.5% adjuvant) was 45.8%, the Kappa index ([4]; 0.5% adjuvant) was 33.4 and the “% Caustic soda consumed/wood” value ([4]; 1% adjuvant) was 18.1%. The Classified yield ([4]; 1% adjuvant) was 45.5%, the Crude yield ([4]; 1% adjuvant) was 45.7% and the Kappa index ([4]; 1% adjuvant) was 28.0. The “effect on delignification” value ([4]; listed as 1,2,3,4,4a,9a-hdxahydro9,10-anthracene-dione) was “accelerates the delignification and makes it more selective”.

For O=C1c2ccccc2C(=O)c2ccccc21 [Anthraquinone, anthraquinone, reference compound], the “% Effective alkali consumed/wood” value ([1]; 0.5% adjuvant) was 17.4%, the Classified yield ([1]; 0.5% adjuvant) was 43.8% and the Crude yield ([1]; 0.5% adjuvant) was 44%. The Kappa index ([1]; 0.5% adjuvant) was 24.3, the Index of rupture [2] was 5.07 and the Index of tearing [2] was 813. For the same molecule, the Length of rupture [2] was 7,230 m, the Resistance to bending [2] was 945 and the “mechanical characteristics / degradation of pulps” value ([3]; Kraft cooking) was “inferior mechanical characteristics; also recorded: a relatively large degradation is observed”. For the same molecule, the Index of rupture ([3]; Kraft cooking) was 4.48, the Index of tearing ([3]; Kraft cooking) was 808 and the Length of rupture ([3]; Kraft cooking) was 5,850 m. For the same molecule, the Resistance to bending ([3]; Kraft cooking) was 905, the “% Caustic soda consumed/wood” value ([4]; 0.5% adjuvant) was 17.5% and the Classified yield ([4]; 0.5% adjuvant) was 46.2%. It also gave a Crude yield ([4]; 0.5% adjuvant) of 46.8% and a Kappa index ([4]; 0.5% adjuvant) of 32.2.
